Usually IC50 stands for the concentration that gives 50% inhibition.

Where only a bound is given, the exact number is not on record here.

Sequence of human plasma kallikrein (P03952 391-638 limits assumed): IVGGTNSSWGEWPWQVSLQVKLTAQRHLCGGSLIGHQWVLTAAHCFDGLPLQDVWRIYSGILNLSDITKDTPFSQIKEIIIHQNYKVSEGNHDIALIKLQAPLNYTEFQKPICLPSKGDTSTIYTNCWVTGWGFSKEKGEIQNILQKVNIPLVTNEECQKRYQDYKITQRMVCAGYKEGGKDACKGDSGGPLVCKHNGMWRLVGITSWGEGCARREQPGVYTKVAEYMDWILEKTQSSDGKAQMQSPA
Sequence of human plasma kallikrein (P03952 20-390 partner limits assumed): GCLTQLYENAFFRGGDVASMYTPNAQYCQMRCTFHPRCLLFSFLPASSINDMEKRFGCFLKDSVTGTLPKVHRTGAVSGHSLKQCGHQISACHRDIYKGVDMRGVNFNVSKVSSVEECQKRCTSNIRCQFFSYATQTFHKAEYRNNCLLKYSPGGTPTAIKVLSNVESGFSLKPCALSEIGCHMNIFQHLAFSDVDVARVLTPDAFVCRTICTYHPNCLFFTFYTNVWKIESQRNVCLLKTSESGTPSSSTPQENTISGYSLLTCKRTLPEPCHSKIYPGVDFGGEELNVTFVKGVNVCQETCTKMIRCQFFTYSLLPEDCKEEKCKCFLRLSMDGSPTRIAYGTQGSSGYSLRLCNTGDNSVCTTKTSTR

This experiment addresses human plasma kallikrein (Homo sapiens, UniProt P03952). Description: Kallikrein inhibition FLINT assay with quenched AMC peptide substrate Z-Gly-Pro-Arg-AMC (end point EP or kinetic KIN reads). Format: biochemical. Conditions: kinetic reads at 5 min intervals over 30 min; read-out: Kallikrein (KIN) IC50. Summed up:
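Enzyme and compound were preincubated 30 min before adding 50 μM AMC substrate in pH 7.5 Tris/NaCl/CaCl2/BSA/CHAPS buffer. AMC release was read at 30 min endpoint or every 5 min.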
On to `[O-][n+]1cc(-c2c(-n3cnnn3)ccc(Cl)c2F)ccc1C(Cn1ccc(-c2ccccc2)n1)n1cc(-c2ccncc2)cn1` (stereo not shown) [Example P270], for which the IC50 stood at 268 nM.
On to `COC(=O)Nc1ccc(-c2cnn(C(CC3CC(C)(C)C3)c3ccc(-c4c(-n5cnnn5)ccc(Cl)c4F)c[n+]3[O-])c2)cc1` (stereo not shown) [Example P126], for which the IC50 is 248 nM.
`NC(=O)c1ccn(CC(c2ccc(-c3c(-n4cnnn4)ccc(Cl)c3F)c[n+]2[O-])n2cc(-c3ccnc(C(F)(F)F)c3)cn2)n1` (single isomer, unassigned) [Example P448]: the IC50 stood at 9.4 nM.
As for `[O-][n+]1cc(-c2c(-n3cc(Cl)nn3)ccc(Cl)c2F)ccc1[C@@H](Cn1cc(OC(F)F)cn1)n1cc(-c2cn(C(F)F)nn2)cn1` [Example P655], the IC50 turned out to be 734 nM.
As to `COc1cc(C(CC2CC2)n2cc(-c3ccc(N)nc3F)cn2)[n+]([O-])cc1-c1c(-c2cnco2)ccc(Cl)c1F` (stereo not shown) [Example P182], the IC50 amounted to 55.2 nM.
Consider `CN(CC(c1ccc(-c2c(-n3cnnn3)ccc(Cl)c2F)c[n+]1[O-])n1cc(-c2cc[n+]([O-])cc2)cn1)C(=O)Cc1ccccc1` (stereo not shown) [Example P345], for which the IC50 came out at 152 nM.
Take `COCCC(c1ccc(-c2c(-n3cnnn3)ccc(Cl)c2F)c[n+]1[O-])n1cc(-n2ccnc2)cn1` (single isomer, unassigned) [Example P527]: the IC50 came to 176 nM.
Then `NC(=O)c1ccc(-c2cnn(C(CCOC(F)F)c3ccc(-c4c(-n5cnnn5)ccc(Cl)c4F)c[n+]3[O-])c2)cc1F` (single isomer, unassigned) [Example P929], with 5.8 nM.
As to `[O-][n+]1cc(-c2c(-n3cc(Cl)nn3)ccc(Cl)c2F)ccc1[C@@H](CCOC(F)F)n1cc(-c2cnnn2C(F)F)cn1` [Example P668], the IC50 stood at 39.2 nM.
Then `COC(=O)N1CCCC(c2cnn(C(CC3CC3)c3ccc(-c4c(-n5cnnn5)ccc(Cl)c4F)c[n+]3[O-])c2)C1` (stereo not shown) [Example P108], with 649 nM; and `O=C(O)c1ccc(-c2cnn(C(Cc3ccn(C(F)F)n3)c3ccc(-c4c(-n5cc(C(F)(F)F)nn5)ccc(Cl)c4F)c[n+]3[O-])c2)cc1` (single isomer, unassigned) [Example P900], with 2.2 nM.
With `O=C(O)c1ccc(-c2cnn(C(Cc3ccn(C(F)F)n3)c3ccc(-c4c(C(F)F)ccc(Cl)c4F)c[n+]3[O-])c2)cc1` (single isomer, unassigned) [Example Q71], the half-inhibitory concentration (IC50) was determined as 4.9 nM.
As to `Nc1ccc(-c2cnn(C(CCOC(F)F)c3ccc(-c4c(-n5cnnn5)ccc(Cl)c4F)c[n+]3[O-])c2)c(F)n1` (single isomer, unassigned) [Example P297], the IC50 was determined as 2.2 nM.
For `O=C(O)c1ccc(-c2cnn(C(Cc3ccn(C(F)F)n3)c3ccc(-c4c(-n5cc(C(F)(F)F)nn5)ccc(Cl)c4F)c[n+]3[O-])c2)cc1F` (single isomer, unassigned) [Example P931], the IC50 is 2.5 nM.
Then `Cn1ncc(-c2cnn(C(CC3CC3)c3cc(Cl)c(-c4c(-n5cnnn5)ccc(Cl)c4F)c[n+]3[O-])c2)cc1=O` (stereo not shown) [Example P139], with 57.5 nM; and `CC(C)c1cc(-c2cnn(C(Cn3cc(F)cn3)c3ccc(-c4c(-n5cnnn5)ccc(Cl)c4F)c[n+]3[O-])c2)cc[n+]1[O-]` (single isomer, unassigned) [Example P413], with 19.3 nM.
On to `COCC[C@H](c1ccc(-c2c(-n3cnnn3)ccc(Cl)c2F)c[n+]1[O-])n1cc(-c2cnc(C(F)F)s2)cn1` [Example P531], for which the IC50 was 174 nM.
As to `[O-][n+]1cc(-c2c(-n3cnnn3)ccc(Cl)c2F)ccc1C(CC1CC1)n1cc(-c2scnc2C(F)(F)F)cn1` (stereo not shown) [Example P540], the IC50 turned out to be 471 nM.
In the case of `[O-][n+]1cc(-c2c(-n3cnnn3)ccc(Cl)c2F)ccc1[C@@H](CCOC(F)F)n1cc(-c2ccn(C(F)F)n2)cn1` [Example P563], the IC50 was determined as 25 nM.
For the compound `Cn1nncc1-c1cnn([C@H](CCOC(F)F)c2ccc(-c3c(-n4cc(C(F)(F)F)nn4)ccc(Cl)c3F)c[n+]2[O-])c1` [Example P761], the IC50 stood at 41.6 nM.
For the compound `CC(C)n1ccc(C[C@@H](c2ccc(-c3c(-n4cnnn4)ccc(Cl)c3F)c[n+]2[O-])n2cc(-c3ccnc(C(F)(F)F)c3)cn2)n1` [Example P651], the IC50 amounted to 307 nM.
With `[O-][n+]1cc(-c2c(-n3cnnn3)ccc(Cl)c2F)ccc1[C@@H](CCOC(F)F)n1cc(-c2c(Cl)nnn2C(F)F)cn1` [Example P714], the IC50 was 28.6 nM.
Take `[O-][n+]1cc(-c2c(-n3cnnn3)ccc(Cl)c2F)ccc1C(CC1CC1)n1cc(-c2ccnc(C(F)(F)F)n2)cn1` (stereo not shown) [Example P295]: the IC50 amounted to 385 nM.
Regarding `[O-][n+]1cc(-c2c(C(F)F)ccc(Cl)c2F)ccc1C(CCOC(F)F)n1cc(-c2ccnc(C(F)(F)F)n2)cn1` (stereo not shown) [Example Q29], the IC50 was 259 nM.
In the case of `CN(CC(c1ccc(-c2c(-n3cnnn3)ccc(Cl)c2F)c[n+]1[O-])n1cc(-c2ccnc(C(F)(F)F)c2)cn1)C(=O)C1CCOCC1` (stereo not shown) [Example P407], the IC50 was 109 nM.
Take `[O-][n+]1cc(-c2c(-n3cnnn3)ccc(Cl)c2F)ccc1C(Cn1cccn1)n1cc(-c2ccnc(F)c2)cn1` (stereo not shown) [Example P309]: the IC50 was found to be 9.2 nM.
Take `[O-][n+]1cc(-c2c(-n3cnnn3)ccc(Cl)c2F)ccc1[C@H](Cn1ccc(OC(F)F)n1)n1cc(-c2ccnc(C(F)(F)F)c2)cn1` [Example P534]: the IC50 is 93.1 nM.
Turning to `O=C(O)c1ccc(-c2cnn(C(Cc3ccc(Cl)cc3)c3ccc(-c4cc(Cl)ccc4-n4cnnn4)c[n+]3[O-])c2)cc1` (stereo not shown) [Example P57], the IC50 is 3.8 nM.
Then `Cc1ncn(-c2cnn(C(CCOC(F)F)c3ccc(-c4c(-n5cc(OC(F)F)nn5)ccc(Cl)c4F)c[n+]3[O-])c2)n1` (single isomer, unassigned) [Example P825], with 588 nM; and `O=C(O)C1CCN(C(=O)C2CC2CC(c2ccc(-c3c(-n4cnnn4)ccc(Cl)c3F)c[n+]2[O-])n2cc(-c3ccccc3)cn2)CC1` (stereo not shown) [Example P213], with 491 nM.
Then `[O-][n+]1cc(-c2c(C(F)F)ccc(Cl)c2F)ccc1C(Cn1cc(F)cn1)n1cc(-c2ccnc(C(F)(F)F)c2)cn1` (single isomer, unassigned) [Example Q22], with 806 nM; and `Cn1ncc(-c2cnn(C(CCOC(F)F)c3ccc(-c4c(-n5cnnn5)ccc(Cl)c4F)c[n+]3[O-])c2)cc1=O` (stereo not shown) [Example P415], with 184 nM; and `[O-][n+]1cc(-c2c(-n3cnnn3)ccc(Cl)c2F)ccc1C(CC1CC1)n1cc(-c2ccnc(OC(F)F)c2)cn1` (stereo not shown) [Example P313], with 151 nM.
As for `Cn1nccc1-c1cnn(C(Cn2cc(F)cn2)c2ccc(-c3c(C(F)F)ccc(Cl)c3F)c[n+]2[O-])c1` (stereo not shown) [Example Q30], the IC50 stood at 88.1 nM.
With `O=C(O)c1ccc(-c2cnn(C(Cc3nccs3)c3ccc(-c4c(-n5cc(C(F)(F)F)nn5)ccc(Cl)c4F)c[n+]3[O-])c2)cc1F` (stereo not shown) [Example P941], the IC50 worked out at 12.2 nM.
Take `CC1CC1CC(c1ccc(-c2c(-n3cnnn3)ccc(Cl)c2F)c[n+]1[O-])n1cc(-c2ncnn2C(F)F)cn1` (stereo not shown) [Example P765]: the IC50 is above 100 nM.
As for `NC(=O)c1ccc(-c2cnn(C(CCOC(F)F)c3ccc(-c4c(-n5cc(Cl)nn5)ccc(Cl)c4F)c[n+]3[O-])c2)cc1` (single isomer, unassigned) [Example P896], the half-maximal inhibitory concentration (IC50) came to 0.2 nM.
Take `Cn1cc2cc(-c3cnn(C(CC4CC4)c4ccc(-c5c(-n6cnnn6)ccc(Cl)c5F)c[n+]4[O-])c3)ccc2n1` (stereo not shown) [Example P326]: the IC50 is 47.9 nM.
`O=C(O)c1ccc(-c2cnn(C(CC3CC3)c3ccc(-c4c(C(F)F)ccc(Cl)c4F)c[n+]3[O-])c2)cc1` (stereo not shown) [Example Q16]: the IC50 is 305 nM.
Turning to `[O-][n+]1cc(-c2c(-n3cnnn3)ccc(Cl)c2F)ccc1C(CCOC(F)F)n1cc(-c2ccncn2)cn1` (stereo not shown) [Example P367], the IC50 was determined as 43.9 nM.
Take `Cn1nncc1-c1cnn([C@H](Cn2cc(F)cn2)c2ccc(-c3c(-n4cc(Cl)nn4)ccc(Cl)c3F)c[n+]2[O-])c1` [Example P537]: the IC50 came to 96.7 nM.
Then `N#Cc1cc(-c2cnn(C(Cn3ccccc3=O)c3ccc(-c4c(-n5cnnn5)ccc(Cl)c4F)c[n+]3[O-])c2)ccn1` (stereo not shown) [Example P459], with 105 nM; and `NC(=O)c1ccc(-c2cnn(C(Cc3ccn(C(F)F)n3)c3ccc(-c4c(-n5cc(Cl)nn5)ccc(Cl)c4F)c[n+]3[O-])c2)cc1F` (stereo not shown) [Example P894], with 2.5 nM.
As to `CN(CC(c1ccc(-c2c(-n3cnnn3)ccc(Cl)c2F)c[n+]1[O-])n1cc(-c2ccnc(F)c2)cn1)C(=O)OC(C)(C)C` (single isomer, unassigned) [Example P354], the half-maximal inhibitory concentration (IC50) stood at 38.8 nM.
Regarding `[O-][n+]1cc(-c2cc(Cl)ccc2-n2cnnn2)ccc1C(Cc1ccc(Cl)cc1)n1cc(-c2ccncc2)cn1` (stereo not shown) [Example P171], the IC50 came out at 15.3 nM.
As for `[O-][n+]1cc(-c2c(-n3cnnn3)ccc(Cl)c2F)ccc1C(Cc1nn(CC(F)(F)F)cc1F)n1cc(-c2ccnc(C(F)(F)F)c2)cn1` (stereo not shown) [Example P741], the IC50 amounted to 22.1 nM.
As for `Nc1ccc(-c2cnn(C(Cn3cccn3)c3ccc(-c4c(-n5cnnn5)ccc(Cl)c4F)c[n+]3[O-])c2)c(F)n1` (stereo not shown) [Example P256], the IC50 stood at 3 nM.
Consider `[O-][n+]1cc(-c2c(-n3cnnn3)ccc(Cl)c2F)ccc1[C@@H](CC1CCC1)n1cc(-c2cn(C(F)F)nn2)cn1` [Example P657], for which the IC50 was found to be 468 nM.
In the case of `CC(=O)N(C)CC(c1ccc(-c2c(-n3cnnn3)ccc(Cl)c2F)c[n+]1[O-])n1cc(-c2ccncc2)cn1` (stereo not shown) [Example P302], the IC50 is 54.6 nM.
Then `Cn1cc(C[C@H](c2ccc(-c3c(-n4cnnn4)ccc(Cl)c3F)c[n+]2[O-])n2cc(-c3ccnc(C(F)(F)F)c3)cn2)nn1` [Example P736], with 8.4 nM; and `CC(C)(C)c1cc(-c2cnn(C(Cn3cc(F)cn3)c3ccc(-c4c(-n5cnnn5)ccc(Cl)c4F)c[n+]3[O-])c2)cc[n+]1[O-]` (stereo not shown) [Example P436], with 95.6 nM.
For `COc1ccc(CC(c2ccc(-c3cc(Cl)ccc3-n3cnnn3)c[n+]2[O-])n2cc(-c3ccc(C(=O)NC4CC4)cc3)cn2)cc1` (stereo not shown) [Example P86], the IC50 came to 23 nM.
